Our source for the IC50 values is ChEMBL document CHEMBL1140477 (Bioorg Med Chem, 2007).

SMILES strings stand for the structures.

This assay deals with T1, 3-hydroxy-3-methylglutaryl-coenzyme A reductase (Rattus norvegicus, UniProt P51639).
T1 sequence (P51639 whole entry): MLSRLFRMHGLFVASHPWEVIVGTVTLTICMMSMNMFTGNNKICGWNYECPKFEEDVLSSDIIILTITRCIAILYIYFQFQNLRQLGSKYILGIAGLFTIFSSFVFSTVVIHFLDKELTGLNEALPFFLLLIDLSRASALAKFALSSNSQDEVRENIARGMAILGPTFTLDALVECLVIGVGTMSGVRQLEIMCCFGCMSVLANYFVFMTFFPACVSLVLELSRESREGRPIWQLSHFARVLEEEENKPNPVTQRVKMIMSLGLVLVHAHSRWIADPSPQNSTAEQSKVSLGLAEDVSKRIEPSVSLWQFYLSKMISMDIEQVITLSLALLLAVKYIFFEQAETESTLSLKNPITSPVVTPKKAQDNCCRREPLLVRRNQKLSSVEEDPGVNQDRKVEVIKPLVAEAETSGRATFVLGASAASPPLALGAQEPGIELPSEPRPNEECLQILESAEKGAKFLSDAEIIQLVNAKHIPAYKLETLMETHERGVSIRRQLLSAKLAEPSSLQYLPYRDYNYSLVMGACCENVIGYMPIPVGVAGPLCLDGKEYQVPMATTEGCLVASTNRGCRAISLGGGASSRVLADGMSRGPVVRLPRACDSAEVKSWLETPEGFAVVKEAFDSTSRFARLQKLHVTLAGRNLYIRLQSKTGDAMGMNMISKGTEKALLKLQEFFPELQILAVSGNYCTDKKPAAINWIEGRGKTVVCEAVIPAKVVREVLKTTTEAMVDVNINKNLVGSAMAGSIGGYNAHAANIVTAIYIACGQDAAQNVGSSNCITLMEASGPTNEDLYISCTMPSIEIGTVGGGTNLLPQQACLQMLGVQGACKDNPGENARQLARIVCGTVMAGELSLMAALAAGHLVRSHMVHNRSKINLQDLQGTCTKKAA
As to the kind of experiment: Inhibition of Holtzman-Sprague-Dawley rat liver HMG CoA reductase after 30 mins.
In turn, `O=C1C[C@H](O)C[C@@H](/C=C/c2cnc3cc(Sc4ccccc4)c(Sc4ccccc4)cc3c2Sc2ccccc2)O1` came in with an IC50 of 32.5 µM. Compound `CC(C)c1ccc(Sc2c(/C=C/[C@@H]3C[C@@H](O)CC(=O)O3)cnc3cc(Cl)c(F)cc23)cc1` came in with an IC50 of 22.1 µM.

In the case of `CC(C)c1ccc(Sc2cc3ncc(/C=C/[C@@H]4C[C@@H](O)CC(=O)O4)c(Sc4ccc(C(C)C)cc4)c3cc2Sc2ccc(C(C)C)cc2)cc1`, half-maximal inhibition (IC50) was put at 14.2 µM.

For the compound `COc1cccc(Sc2cc3ncc(/C=C/[C@@H]4C[C@@H](O)CC(=O)O4)c(Sc4cccc(OC)c4)c3cc2Sc2cccc(OC)c2)c1`, the midpoint of inhibition, the IC50, lay at 15.4 µM. `O=C1C[C@H](O)C[C@@H](/C=C/c2cnc3c(F)c(F)c(F)cc3c2Sc2ccccc2)O1` displayed an IC50 of 10.7 µM. To `O=C1C[C@H](O)C[C@@H](/C=C/c2cnc3cc(Sc4ccc(F)cc4)c(F)cc3c2Sc2ccc(F)cc2)O1` belongs 38.9 µM; to `CC(C)c1ccc(Sc2c(/C=C/[C@@H]3C[C@@H](O)CC(=O)O3)cnc3ccccc23)cc1`, 12.7 µM; to `COc1cccc(Sc2c(F)cc3c(Sc4cccc(OC)c4)c(/C=C/[C@@H]4C[C@@H](O)CC(=O)O4)cnc3c2Sc2cccc(OC)c2)c1`, 74.6 µM. To `CC(C)c1ccc(Sc2ccc3c(Sc4ccc(C(C)C)cc4)c(/C=C/[C@@H]4C[C@@H](O)CC(=O)O4)cnc3c2)cc1` belongs 15.8 µM. For the compound `O=C1C[C@H](O)C[C@@H](/C=C/c2cnc3ccccc3c2Sc2ccc(F)cc2)O1`, the midpoint of inhibition, the IC50, lay at 18.6 µM. `COc1cccc(Sc2c(F)cc3c(Sc4cccc(OC)c4)c(/C=C/[C@@H]4C[C@@H](O)CC(=O)O4)cnc3c2F)c1` came in with an IC50 of 49.7 µM. `O=C1C[C@H](O)C[C@@H](/C=C/c2cnc3cc(Sc4ccccc4)c(F)cc3c2Sc2ccccc2)O1`: the IC50 was determined as 4.41 µM.

As to `O=C(O)C[C@H](O)C[C@H](O)/C=C/c1c(C2CC2)nc2ccccc2c1-c1ccc(F)cc1` [PITAVASTATIN CALCIUM], the IC50 came to 10.6 µM. `CC(C)c1ccc(Sc2cc3c(Sc4ccc(C(C)C)cc4)c(/C=C/[C@@H]4C[C@@H](O)CC(=O)O4)cnc3c(Sc3ccc(C(C)C)cc3)c2Sc2ccc(C(C)C)cc2)cc1` yielded an IC50 of 4.35 µM.
